Results reported in patent US5654274A, “Biologically active peptides having N-terminal substitutions” (priority 1995, dated 1997).
Ends that are not written are not given here. Peptide text beside a SMILES is read from it. * marks the point of attachment. Octanoyl = CCCCCCCC(=O)*

What was measured:
P. gingivalis = experiment: Anaerobic antimicrobial susceptibility test (NCCLS M11-T2), P. gingivalis; format: cell-based; conditions: 24-48 hours; for MIC P. gingivalis (strain) 9-14K-1: strain 9-14K-1, BHI broth; for MIC P. gingivalis (strain) 381: strain 381, BHI broth; for MIC P. gingivalis (strain) A7A1-28: strain A7A1-28, BHI broth; for MIC P. gingivalis (strain) FAY-19M-1: strain FAY-19M-1, BHI broth; for MIC P. gingivalis (strain) W50: strain W50, BHI broth
S. mutans = experiment: Anaerobic antimicrobial susceptibility test (NCCLS M11-T2), S. mutans; format: cell-based; conditions: BHI broth, 24-48 hours
A. viscosus = experiment: Anaerobic antimicrobial susceptibility test (NCCLS M11-T2), A. viscosus; format: cell-based; conditions: BHI broth, 24-48 hours
[1] = system: S. aureus strain ATCC 25923; experiment: Antibacterial MIC microtiter assay (NCCLS M7-T2), S. aureus; format: cell-based; conditions: S. aureus ATCC 25923; Mueller Hinton broth, 16-20 hours at 37° C.
Text: (§1) Table I, which follows, indicates the Minimal Inhibitory Concentration (MIC) in μg/ml of various peptides, against S. aureus strain ATCC 25923(S), P. aeruginosa strain ATCC 27853(P), and E. coli ATCC strain 25922(E), and C. albicans (CA). […] The peptides ere unsubstituted at the N-terminal, substituted with an acetyl group at the N-terminal as indicated by Ac-; substituted with an octanoyl group at the N-terminal as indicated by Oct-, substituted with sphingosine as indicated by Sph-; substituted with a succinyl group, as indicated by Suc-; substituted with a hexanoyl group, as indicated by Hex-; substituted with a heptanoyl group, as indicated by Hep; substituted with a valeryl group, as indicated by Val-; substituted with, a myristryl group, as indicated by Myr-; or substituted with an ibuprofyl group, as indicated by Ibu-.
(§2) The procedure for the antibacterial assay is based upon the guidelines of the National Committee for Clinical Laboratory Standards, Document M7-T2, Volume 8, No. 8, 1988. […]
(§3) The stock peptide solution is diluted in serial dilutions (1:2) down the wells of a microtiter plate so that the final concentrations of peptides in the wells are 0.25, 0.50, 1, 2, 4, 8, 16, 32, 64, 128, and 256 μg/ml. […] The plates are incubated for 16-20 hours at 37° C., and the minimal inhibitory concentration (MIC) for each peptide is determined. […]

[2] = system: P. aeruginosa strain ATCC 27853; experiment: Antibacterial MIC microtiter assay (NCCLS M7-T2), P. aeruginosa; format: cell-based; conditions: P. aeruginosa ATCC 27853; Mueller Hinton broth, 16-20 hours at 37° C.
Text: as §1, §2, §3

[3] = system: E. coli ATCC strain 25922; experiment: Antibacterial MIC microtiter assay (NCCLS M7-T2), E. coli; format: cell-based; conditions: E. coli ATCC 25922; Mueller Hinton broth, 16-20 hours at 37° C.
Text: as §1, §2, §3

C. albicans = experiment: MIC microtiter assay, C. albicans; format: cell-based; conditions: Mueller Hinton broth, 16-20 hours at 37° C.
Text: as §1
The procedure for the antibacterial assay is based upon the guidelines of the National Committee for Clinical Laboratory Standards, Document M7-T2, Volume 8, No. 8, 1988.
Stock solutions of peptides with and without the appropriate substitutions,are prepared at a concentration of 512 μg/ml in sterile deionized distilled water and stored at -70° C. Each peptide is a C-terminal amide.
The stock peptide solution is diluted in serial dilutions (1:2) down the wells of a microtiter plate so that the final concentrations of peptides in the wells are 0.25, 0.50, 1, 2, 4, 8, 16, 32, 64, 128, and 256 μg/ml. 1-5×10^5 CFUs/ml of either S. aureus ATCC 25923, E. coli ATCC 25922, P. aeruginosa ATCC 27853, or C. albicans, were added to the wells in full strength Mueller Hinton broth (BBL 11443) from a mid-log culture. The inoculum is standardized spectrophotometrically at 600 nm and is verified by colony counts. The plates are incubated for 16-20 hours at 37° C., and the minimal inhibitory concentration (MIC) for each peptide is determined. Minimal inhibitory concentration is defined as the lowest concentration of peptide which produces a clear well in the microtiter plate. […]

[4] = Inhibition of lipopolysaccharide binding to dye (LPS50); design: species or system E. coli; conditions: concentration of peptide necessary to inhibit the binding of 50% of the lipopolysaccharide to the dye; absorbance at 460 nm and 510 nm
Experimental: A stock solution (10×) of 0.6 mM dye is prepared by adding 1.68 mg of (1-ethyl-2-(3-[1-ethylnaphthol(1,2-d)- thiazolin-2-ylidene]-2-methylpropenyl)naphtho-(1,2-d)-thiazolium bromide (Signa E-7762) to 5 ml of 200 proof ethanol. 1 ml of this solution was added to 9 ml ethanol to give 0.06 mM of dye (60 μM dye).
A stock solution of lipopolysaccharide (LPS) from E. coli serotype 0111:B4 was prepared at 1.5 mg/ml. 400 μl of this solution was mixed with 4.6 ml pyrogen free water to give a 120 μg/ml solution.
Row 1 and rows 3 through 12 of a microtiter plate were filled with 100 μl of pyrogen free water or with 10 mg/ml of bovine serum albumin. 200 μl of peptide then is added to row 2 of the microtiter plate at a concentration of […]. 200 μl of pyrogen free water is added to each of the control wells in two lanes (having dye and LPS but no peptide or having dye and no LPS and no peptide). 100 μl then is serially diluted from row 2 through row 12 of the microtiter plate. 50 μl of PBS (pH 7.4) and 50 μl of the LPS solution then are added to row 1 of the plate (blank wells).
Equal volumes of the LPS solution, the dye, and PBS (pH 7.4, approx. 150 mM) are mixed to form a dye-buffer--LPS mixture having LPS at a final concentration of 40 μg/mi and dye at a final concentration of 20 μM. The dye-buffer LPS mixture then is incubated for 10 minutes at room temperature in the dark.
The plate is incubated for 10 minutes at room temperature in the dark, and the absorbance at 460 nm and 510 nm is read. From these absorbances, the LPS50 value, which is the concentration in mg/ml of peptide necessary to inhibit the binding of 50% of the lipopolysaccharide to the dye, is calculated.

KIAKKIAKIAKKIAKIAKKIA-NH2 [(SEQ ID NO: 86)-NH2]
MIC P. gingivalis (strain) 9-14K-1 (P. gingivalis): 8 μl/ml | MIC P. gingivalis (strain) 381 (P. gingivalis): 8 μl/ml | MIC P. gingivalis (strain) A7A1-28 (P. gingivalis): 2 μl/ml | MIC P. gingivalis (strain) FAY-19M-1 (P. gingivalis): 8,128 μl/ml | MIC P. gingivalis (strain) W50 (P. gingivalis): 4 μl/ml | MIC S. mutans (S. mutans): 4 μl/ml | MIC A. viscos (A. viscosus): 16 μl/ml

(SEQ ID NO: 86)-OH: unsubstituted (Lys Ile Ala Lys Lys Ile Ala)3, C-terminal OH (KIAKKIAKIAKKIAKIAKKIA-OH)
Minimal Inhibitory Concentration S [1]: 128 µg/mL | Minimal Inhibitory Concentration P [2]: 32 µg/mL | Minimal Inhibitory Concentration E [3]: 2 µg/mL | Minimal Inhibitory Concentration CA (C. albicans): 256 µg/mL | MIC P. gingivalis (strain) 9-14K-1 (P. gingivalis): 16 μl/ml | MIC P. gingivalis (strain) 381 (P. gingivalis): 16 μl/ml | MIC P. gingivalis (strain) A7A1-28 (P. gingivalis): 4 μl/ml | MIC P. gingivalis (strain) FAY-19M-1 (P. gingivalis): 8 μl/ml | MIC P. gingivalis (strain) W50 (P. gingivalis): 4 μl/ml | MIC S. mutans (S. mutans): 16 μl/ml | MIC A. viscos (A. viscosus): 32 μl/ml

CCCCCCCC(=O)NCC(=O)N[C@H](C(=O)N[C@@H](CCCCN)C(=O)N[C@@H](CCCCN)C(=O)N[C@@H](Cc1ccccc1)C(=O)N[C@@H](CC(C)C)C(=O)N[C@@H](CCCCN)C(=O)N[C@@H](CCCCN)C(=O)N[C@@H](C)C(=O)NCC(=O)N[C@@H](CCCCN)C(=O)N[C@@H](Cc1ccccc1)C(=O)NCC(=O)N[C@@H](CCCCN)C(=O)N[C@@H](C)C(=O)N[C@@H](Cc1ccccc1)C(N)=O)[C@@H](C)CC [Oct-(SEQ ID NO: 149)-NH2] (Octanoyl-GIKKFLKKAGKFGKAF-NH2)
Minimal Inhibitory Concentration CA (C. albicans): 128 µg/mL

(SEQ ID NO: 27)-OH: unsubstituted (Lys Ile Ala Gly Lys Ile Ala)3, C-terminal OH (KIAGKIAKIAGKIAKIAGKIA-OH)
Minimal Inhibitory Concentration S [1]: 128 µg/mL | Minimal Inhibitory Concentration P [2]: 128 µg/mL | Minimal Inhibitory Concentration E [3]: 8 µg/mL

CCCCCCCC(=O)N[C@@H](CCCCN)C(=O)N[C@@H](Cc1c[nH]c2ccccc12)C(=O)N[C@@H](CCCCN)C(=O)N[C@@H](CC(C)C)C(=O)N[C@@H](Cc1ccccc1)C(=O)N[C@@H](CCCCN)C(=O)N[C@@H](CCCCN)C(=O)N[C@H](C(=O)N[C@@H](CCC(=O)O)C(=O)N[C@@H](CCCCN)C(=O)N[C@H](C(N)=O)C(C)C)[C@@H](C)CC [Oct-(SEQ ID NO: 136)-NH2] (Octanoyl-KWKLFKKIEKV-NH2)
Minimal Inhibitory Concentration CA (C. albicans): 128 µg/mL

CCCCCCCC(=O)N[C@@H](CC(C)C)C(=O)N[C@@H](CCCCN)C(=O)N[C@@H](CCCCN)C(=O)N[C@@H](CC(C)C)C(=O)N[C@@H](CC(C)C)C(=O)N[C@@H](CCCCN)C(=O)N[C@@H](CCCCN)C(=O)N[C@@H](CC(C)C)C(=O)N[C@@H](CCCCN)C(=O)N[C@@H](CCCCN)C(=O)N[C@@H](CC(C)C)C(N)=O [Oct-(SEQ ID NO: 110)-NH2] (Octanoyl-LKKLLKKLKKL-NH2)
LPS50 [4]: 0.84 µg/mL

CCCCCCCC(=O)N[C@@H](C)C(=O)N[C@@H](CCCCN)C(=O)N[C@@H](CCCCN)C(=O)N[C@@H](CC(C)C)C(=O)N[C@@H](CC(C)C)C(=O)N[C@@H](CCCCN)C(=O)N[C@@H](CCCCN)C(=O)N[C@@H](CC(C)C)C(=O)N[C@@H](CCCCN)C(=O)N[C@@H](CCCCN)C(=O)N[C@@H](CC(C)C)C(N)=O [Oct-(SEQ ID NO: 111)-NH2] (Octanoyl-AKKLLKKLKKL-NH2)
LPS50 [4]: 1.00 µg/mL
